Results published in patent publication US12600709B2, “Nonpeptide somatostatin type 5 receptor agonists and uses thereof” (Crinetics Pharmaceuticals, Inc., priority 2019, dated 2026).
Like-named read-outs stand apart in the source and are kept apart here.

How the values were obtained:
[1] = target: T1, human somatostatin receptor subtype 5 (Homo sapiens, UniProt P35346); assay: cAMP assay for SST5R (inhibition of cAMP in CHO-K1 cells); assay type: cell-based; details: for EC50: inhibition of cAMP via human SST5 receptor, read-out: SST5 potency; for Fold selectivity for SST5 vs SST2: class symbols, SST5 receptor over SST2 receptor
T1 construct: expressed in transfected cells
In short: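 CHO-K1 cells stably expressing human SSTR5 were treated 20 min at 37 °C with compounds plus 1.6 μM NKH477 in HBSS, 0.5 mM HEPES pH 7.4, 0.1% BSA, 0.2 mM IBMX. Lysate cAMP measured by HTRF against a standard curve; EC50 from cAMP-versus-concentration plots.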

[2] = target: T2, human somatostatin receptor subtype 2 (Homo sapiens, UniProt P30874); assay: cAMP assay for SST2R (inhibition of cAMP in CHO-K1 cells); assay type: cell-based; details: Table B; inhibition of cAMP via human SST2 receptor; read-out: SST2 potency
T2 construct: expressed in transfected cells
From the text: General overview: All five SSTR subtypes are Gi coupled G-protein coupled receptors (GPCRs) that lead to decreases in intracellular cyclic AMP (cAMP) when activated by an agonist. Therefore, measurement of intracellular cAMP levels can be used to assess whether compounds of the invention are agonists of SSTR subtypes (John Kelly, Troy Stevens, W. Joseph Thompson, and Roland Seifert, Current Protocols in Pharmacology, 2005, 2.2.1-2.2). One example of an intracellular cAMP assay is described below.
cAMP Assay Protocol for SST2R:
Four days prior to the assay, 5,000 Chinese hamster ovary cells (CHO-K1, ATCC #CCL-61) stably expressing the human somatostatin receptor subtype 2 are plated in each well of a 96-well tissue culture-treated plate in Ham's F12 growth media (ThermoFisher #10-080-CM) supplemented with 10% donor bovine serum (Gemini Bio-Products #100-506), 100 U/mL penicillin; 100 μg/mL streptomycin; 2 mM L-glutamine (Gemini Bio-Products #400-110) and 0.2 mg/mL hygromycin B (GoldBio #31282-04-9). The cells are cultured at 37° C., 5% CO2 and 95% humidity. On the day of the assay, the media is aspirated and the cells are treated with 50 μL of 1.6 μM NKH477 (Sigma #N3290) plus various dilutions of compounds of the invention in assay buffer [1× Hank's Balanced Salt Solution (ThermoFisher #SH3058802), 0.5 mM HEPES pH 7.4, 0.1% bovine serum albumin, 0.2 mM 3-Isobutyl-1-methylxanthine (IBMX, VWR #200002-790)]. The cells are incubated for 20 minutes at 37° C. […] The cells are treated with 50 μL of lysis buffer (HRTF cAMP kit, Cisbio). The lysate is transferred to 384-well plates and cAMP detection and visualization antibodies are added and incubated for 1-24 hours at room temperature. The time-resolved fluorescent signal is read with a Tecan M1000Pro multiplate reader. The intracellular cAMP concentrations are calculated by regression to a standard curve and are plotted vs. the concentration of the compounds of the invention and the EC50 of the compounds are calculated using standard methods. All data manipulations are in GraphPad Prism v6 or v7.

T2 sequence (P30874 whole entry): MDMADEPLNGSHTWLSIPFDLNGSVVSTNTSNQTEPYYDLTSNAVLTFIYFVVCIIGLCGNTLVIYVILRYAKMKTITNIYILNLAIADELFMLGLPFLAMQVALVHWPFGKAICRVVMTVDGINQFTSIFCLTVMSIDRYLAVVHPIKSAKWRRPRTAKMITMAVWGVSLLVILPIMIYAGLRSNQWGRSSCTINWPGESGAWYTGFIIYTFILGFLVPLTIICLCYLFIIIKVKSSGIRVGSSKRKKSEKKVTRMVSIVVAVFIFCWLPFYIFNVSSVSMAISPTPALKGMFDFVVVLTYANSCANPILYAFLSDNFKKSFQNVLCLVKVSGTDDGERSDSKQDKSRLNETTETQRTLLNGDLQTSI
T1 sequence (P35346 whole entry): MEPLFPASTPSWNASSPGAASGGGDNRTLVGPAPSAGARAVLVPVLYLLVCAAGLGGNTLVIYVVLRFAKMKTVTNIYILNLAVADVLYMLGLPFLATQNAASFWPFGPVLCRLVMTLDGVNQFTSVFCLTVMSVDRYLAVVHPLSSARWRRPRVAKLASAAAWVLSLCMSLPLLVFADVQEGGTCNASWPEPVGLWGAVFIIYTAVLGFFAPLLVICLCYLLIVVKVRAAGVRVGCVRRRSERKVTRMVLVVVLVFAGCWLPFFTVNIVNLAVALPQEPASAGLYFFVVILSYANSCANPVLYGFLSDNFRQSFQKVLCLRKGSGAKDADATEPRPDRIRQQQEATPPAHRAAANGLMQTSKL

`COc1ncc(C(=O)N[C@@H](C)C2CC2)c(N2CC[C@](C)(N)C2)c1-c1cc(F)cc(C(F)(F)F)c1` [1-164, 4-[(3S)-3-amino-3-methylpyrrolidin-1-yl]-N-[(1S)-1-cyclopropylethyl]-5-[3-fluoro-5-(trifluoromethyl)phenyl]-6-methoxypyridine-3-carboxamide] was tested, and the EC50 ([1]; Table A) was less than 10 nM, the “Fold selectivity for SST5 vs SST2” value ([1]; Table B) was “+++ (+++=>500)” and the EC50 ([1]; Table B) was less than 10 nM. For the same molecule, the EC50 [2] was 100 to 1000 nM.
`COc1ncc(C(=O)NCc2ccon2)c(N2CC[C@](C)(N)C2)c1-c1cc(F)cc(Cl)c1` [1-238, 4-[(3S)-3-amino-3-methylpyrrolidin-1-yl]-5-(3-chloro-5-fluorophenyl)-6-methoxy-N-[(1,2-oxazol-3-yl)methyl]pyridine-3-carboxamide] was tested, and the EC50 ([1]; Table A) was less than 10 nM, the “Fold selectivity for SST5 vs SST2” value ([1]; Table B) was “+++ (+++=>500)” and the EC50 ([1]; Table B) was less than 10 nM. The EC50 [2] was 100 to 1000 nM.
With `CC1(NC(=O)c2cncc(-c3cc(F)cc(F)c3)c2N2CC[C@](C)(N)C2)CCC1` [1-34, 4-[(3S)-3-amino-3-methylpyrrolidin-1-yl]-5-(3,5-difluorophenyl)-N-(1-methylcyclobutyl)pyridine-3-carboxamide] the EC50 ([1]; Table A) was less than 10 nM, the “Fold selectivity for SST5 vs SST2” value ([1]; Table B) was “++ (++=100 to 499)” and the EC50 ([1]; Table B) was less than 10 nM. The EC50 [2] was 100 to 1000 nM.
In the case of `N#Cc1ncc(C(=O)NC23CC(C2)C3)c(N2CC[C@H](N)C2)c1-c1cc(F)cc(Cl)c1` [1-90, 4-[(3S)-3-aminopyrrolidin-1-yl]-N-{bicyclo[1.1.1]pentan-1-yl}-5-(3-chloro-5-fluorophenyl)-6-cyanopyridine-3-carboxamide], the EC50 ([1]; Table A) is reported as less than 10 nM, the “Fold selectivity for SST5 vs SST2” value ([1]; Table B) is reported as “+++ (+++=>500)” and the EC50 ([1]; Table B) is reported as less than 10 nM. It also gave an EC50 [2] of 100 to 1000 nM.
`CCCCNC(=O)c1cnc(C#N)c(-c2ccnc(OC)c2)c1N1CC[C@](C)(N)C1` [1-271] was tested, and the EC50 ([1]; Table A) was less than 10 nM, the “Fold selectivity for SST5 vs SST2” value ([1]; Table B) was “+++ (+++=>500)” and the EC50 ([1]; Table B) was less than 10 nM. It also gave an EC50 [2] greater than 1000 nM.
With `Cc1ncc(C(=O)N[C@@H](C)C2CC2)c(N2CC[C@](C)(N)C2)c1-c1cccc(F)c1` [1-124, 4-[(3S)-3-amino-3-methylpyrrolidin-1-yl]-N-[(1S)-1-cyclopropylethyl]-5-(3-fluorophenyl)-6-methylpyridine-3-carboxamide] the EC50 ([1]; Table A) was less than 10 nM, the “Fold selectivity for SST5 vs SST2” value ([1]; Table B) was “+++ (+++=>500)” and the EC50 ([1]; Table B) was less than 10 nM. It also gave an EC50 [2] of 100 to 1000 nM.
In the case of `Cc1cccc2[nH]c(-c3cncc(C(=O)N4CCCC4C(C)C)c3N3CC[C@](C)(N)C3)nc12` (stereo partly drawn) [2-36, (3S)-3-methyl-1-[3-(4-methyl-1H-1,3-benzodiazol-2-yl)-5-[2-(propan-2-yl)pyrrolidine-1-carbonyl]pyridin-4-yl]pyrrolidin-3-amine], the EC50 ([1]; Table A) is reported as less than 10 nM, the “Fold selectivity for SST5 vs SST2” value ([1]; Table B) is reported as “+++ (+++=>500)” and the EC50 ([1]; Table B) is reported as less than 10 nM. For the same molecule, the EC50 [2] was 100 to 1000 nM.
In the case of `COc1cc(C#N)cc(-c2cncc(C(=O)N[C@@H](C)C3CC3)c2N2CC[C@](C)(N)C2)c1` [1-96, 4-[(3S)-3-amino-3-methylpyrrolidin-1-yl]-5-(3-cyano-5-methoxyphenyl)-N-[(1S)-1-cyclopropylethyl]pyridine-3-carboxamide], the EC50 ([1]; Table A) is reported as less than 10 nM, the “Fold selectivity for SST5 vs SST2” value ([1]; Table B) is reported as “++ (++=100 to 499)” and the EC50 ([1]; Table B) is reported as less than 10 nM. It also gave an EC50 [2] of 100 to 1000 nM.
With “4-[(3S)-3-amino-3-methylpyrrolidin-1-yl]-5-(3-cyano-5-methoxyphenyl)-N-[(1S)-1-cyclopropylethyl]-6-methylpyridine-3-carboxamide [1-280]” the EC50 ([1]; Table A) was less than 10 nM, the “Fold selectivity for SST5 vs SST2” value ([1]; Table B) was “+++ (+++=>500)” and the EC50 ([1]; Table B) was less than 10 nM. It also gave an EC50 [2] of 100 to 1000 nM.
With `C[C@H](NC(=O)c1cnc(C#N)c(-c2cccc(OC(F)(F)F)c2)c1N1CC[C@](C)(N)C1)C1CC1` [1-127, 4-[(3S)-3-amino-3-methylpyrrolidin-1-yl]-6-cyano-N-[(1S)-1-cyclopropylethyl]-5-[3-(trifluoromethoxy)phenyl]pyridine-3-carboxamide] the EC50 ([1]; Table A) was less than 10 nM, the “Fold selectivity for SST5 vs SST2” value ([1]; Table B) was “+++ (+++=>500)” and the EC50 ([1]; Table B) was less than 10 nM. It also gave an EC50 [2] of 100 to 1000 nM.
In the case of `C[C@H](NC(=O)c1cnc(C#N)c(-c2cc(F)cc(F)c2)c1N1CC[C@](N)(CC(F)F)C1)C1CC1` [1-118, 4-[(3S)-3-amino-3-(2,2-difluoroethyl)pyrrolidin-1-yl]-6-cyano-N-[(1S)-1-cyclopropylethyl]-5-(3,5-difluorophenyl)pyridine-3-carboxamide], the EC50 ([1]; Table A) is reported as less than 10 nM, the “Fold selectivity for SST5 vs SST2” value ([1]; Table B) is reported as “+++ (+++=>500)” and the EC50 ([1]; Table B) is reported as less than 10 nM. The EC50 [2] was greater than 1000 nM.
In the case of `CCOC(=O)CCCOc1ncc(C(=O)NC2CCC(F)(F)CC2)c(N2CC[C@H](N)C2)c1-c1cc(F)cc(F)c1` [1-202, ethyl 4-({4-[(3S)-3-aminopyrrolidin-1-yl]-5-[(4,4-difluorocyclohexyl)carbamoyl]-3-(3,5-difluorophenyl)pyridin-2-yl}oxy)butanoate], the EC50 ([1]; Table A) is reported as less than 10 nM, the “Fold selectivity for SST5 vs SST2” value ([1]; Table B) is reported as “+++ (+++=>500)” and the EC50 ([1]; Table B) is reported as less than 10 nM. It also gave an EC50 [2] greater than 1000 nM.
With `C[C@H](NC(=O)c1cnc(C(F)(F)F)c(-c2cc(F)cc(Cl)c2)c1N1CC[C@](C)(N)C1)C1CC1` [1-195, 4-[(3S)-3-amino-3-methylpyrrolidin-1-yl]-5-(3-chloro-5-fluorophenyl)-N-[(1S)-1-cyclopropylethyl]-6-(trifluoromethyl)pyridine-3-carboxamide] the EC50 ([1]; Table A) was less than 10 nM, the “Fold selectivity for SST5 vs SST2” value ([1]; Table B) was “++ (++=100 to 499)” and the EC50 ([1]; Table B) was less than 10 nM. The EC50 [2] was 10 to 100 nM.
In the case of `Cc1cccc2[nH]c(-c3cncc(C(=O)N(C)C4CCCC4)c3N3CC[C@](C)(N)C3)nc12` [2-16, 4-[(3S)-3-amino-3-methylpyrrolidin-1-yl]-N-cyclopentyl-N-methyl-5-(4-methyl-1H-1,3-benzodiazol-2-yl)pyridine-3-carboxamide], the EC50 ([1]; Table A) is reported as less than 10 nM.
`C[C@H](NC(=O)c1ccnc(-c2cc(F)cc(F)c2)c1N1CC[C@](C)(N)C1)C1CC1` [3-1, 3-[(3S)-3-amino-3-methylpyrrolidin-1-yl]-N-[(1S)-1-cyclopropylethyl]-2-(3,5-difluorophenyl)pyridine-4-carboxamide] showed an EC50 ([1]; Table A) of 10 to 100 nM.
In the case of `C[C@]1(N)CCN(c2c(C(=O)NC(C3CCC3)C(F)(F)F)cncc2-c2cc(F)cc(F)c2)C1` (stereo partly drawn) [1-56, 4-[(3S)-3-amino-3-methylpyrrolidin-1-yl]-N-(1-cyclobutyl-2,2,2-trifluoroethyl)-5-(3,5-difluorophenyl)pyridine-3-carboxamide], the EC50 ([1]; Table A) is reported as less than 10 nM.
`Cc1cccc2[nH]c(-c3cncc(C(=O)N(C)CC4CC4)c3N3CC[C@](C)(N)C3)nc12` [2-23, 4-[(3S)-3-amino-3-methylpyrrolidin-1-yl]-N-(cyclopropylmethyl)-N-methyl-5-(4-methyl-1H-1,3-benzodiazol-2-yl)pyridine-3-carboxamide] was tested, and the EC50 ([1]; Table A) was 10 to 100 nM.
Work on `Cc1ncc(C(=O)N[C@@H](C)C2CC2)c(N2CC[C@](C)(N)C2)c1-c1cnn(C)c1` [1-148, 4-[(3S)-3-amino-3-methylpyrrolidin-1-yl]-N-[(1S)-1-cyclopropylethyl]-6-methyl-5-(1-methyl-1H-pyrazol-4-yl)pyridine-3-carboxamide] yielded an EC50 ([1]; Table A) of less than 10 nM.
Molecule `CCN(C)C(=O)c1cncc(-c2nc3c(C)cccc3[nH]2)c1N1CC[C@](C)(N)C1` [2-3, 4-[(3S)-3-amino-3-methylpyrrolidin-1-yl]-N-ethyl-N-methyl-5-(4-methyl-1H-1,3-benzodiazol-2-yl)pyridine-3-carboxamide] has an EC50 ([1]; Table A) of 10 to 100 nM.
With `COC[C@]1(N)CCN(c2c(C(=O)N[C@@H](C)C3CC3)cnc(C#N)c2-c2cc(F)cc(F)c2)C1` [1-117, 4-[(3S)-3-amino-3-(methoxymethyl)pyrrolidin-1-yl]-6-cyano-N-[(1S)-1-cyclopropylethyl]-5-(3,5-difluorophenyl)pyridine-3-carboxamide] the EC50 ([1]; Table A) was 100 to 1000 nM.
For `C[C@]1(N)CCN(c2c(C(=O)N[C@@H]3CCCC[C@@H]3F)cncc2-c2cc(F)cc(F)c2)C1` (mixture of isomers) [1-83, 4-[(3S)-3-amino-3-methylpyrrolidin-1-yl]-5-(3,5-difluorophenyl)-N-[cis-2-fluorocyclohexyl]pyridine-3-carboxamide], the EC50 ([1]; Table A) was less than 10 nM.
`CC(F)(F)CNC(=O)c1cncc(-c2cc(F)cc(F)c2)c1N1CC[C@](C)(N)C1` [1-62, 4-[(3S)-3-amino-3-methylpyrrolidin-1-yl]-5-(3,5-difluorophenyl)-N-(2,2-difluoropropyl)pyridine-3-carboxamide] showed an EC50 ([1]; Table A) of less than 10 nM.
